According to article PMC11204923, “Marine Cytotoxin Santacruzamate A Derivatives as Potent HDAC1-3 Inhibitors and Their Synergistic Anti-Leukemia Effects with Venetoclax” (Marine Drugs, 2024):

What was measured:
HDAC2 = molecular target: T1, HDAC2 (Homo sapiens, UniProt Q92769); test: In vitro HDAC inhibition fluorescence assay, HDAC2; format: biochemical
T1 construct: purchased BPS Bioscience
Procedure: All of the HDAC enzymes were purchased from BPS Bioscience. In vitro HDAC inhibition assays were conducted as previously described. In brief, 20 μL of recombinant HDAC enzyme solution (HDAC1-9, 11) was mixed with various concentrations of the tested compound (20 μL). […] After incubation at 37 °C for 2 h, the catalysis was stopped by the addition of 10 μL of developer containing 30 mg/mL trypsin and 6 μM trichostatin A (TSA). Then, 30 min later, the fluorescence intensity was measured using a microplate reader at excitation and emission wavelengths of 360 and 460 nm, respectively. The inhibition ratios were calculated from the fluorescence intensity readings of tested wells relative to those of control wells, and the IC50 curves and values were determined by GraphPad Prism 6.0, using the “log(inhibitor) vs. normalized response-variable slope” function.

HDAC6 = molecular target: T2, HDAC6 (Homo sapiens, UniProt Q9UBN7); test: In vitro HDAC inhibition fluorescence assay, HDAC6; format: biochemical
T2 construct: purchased BPS Bioscience
T2 sequence (Q9UBN7 1-1215): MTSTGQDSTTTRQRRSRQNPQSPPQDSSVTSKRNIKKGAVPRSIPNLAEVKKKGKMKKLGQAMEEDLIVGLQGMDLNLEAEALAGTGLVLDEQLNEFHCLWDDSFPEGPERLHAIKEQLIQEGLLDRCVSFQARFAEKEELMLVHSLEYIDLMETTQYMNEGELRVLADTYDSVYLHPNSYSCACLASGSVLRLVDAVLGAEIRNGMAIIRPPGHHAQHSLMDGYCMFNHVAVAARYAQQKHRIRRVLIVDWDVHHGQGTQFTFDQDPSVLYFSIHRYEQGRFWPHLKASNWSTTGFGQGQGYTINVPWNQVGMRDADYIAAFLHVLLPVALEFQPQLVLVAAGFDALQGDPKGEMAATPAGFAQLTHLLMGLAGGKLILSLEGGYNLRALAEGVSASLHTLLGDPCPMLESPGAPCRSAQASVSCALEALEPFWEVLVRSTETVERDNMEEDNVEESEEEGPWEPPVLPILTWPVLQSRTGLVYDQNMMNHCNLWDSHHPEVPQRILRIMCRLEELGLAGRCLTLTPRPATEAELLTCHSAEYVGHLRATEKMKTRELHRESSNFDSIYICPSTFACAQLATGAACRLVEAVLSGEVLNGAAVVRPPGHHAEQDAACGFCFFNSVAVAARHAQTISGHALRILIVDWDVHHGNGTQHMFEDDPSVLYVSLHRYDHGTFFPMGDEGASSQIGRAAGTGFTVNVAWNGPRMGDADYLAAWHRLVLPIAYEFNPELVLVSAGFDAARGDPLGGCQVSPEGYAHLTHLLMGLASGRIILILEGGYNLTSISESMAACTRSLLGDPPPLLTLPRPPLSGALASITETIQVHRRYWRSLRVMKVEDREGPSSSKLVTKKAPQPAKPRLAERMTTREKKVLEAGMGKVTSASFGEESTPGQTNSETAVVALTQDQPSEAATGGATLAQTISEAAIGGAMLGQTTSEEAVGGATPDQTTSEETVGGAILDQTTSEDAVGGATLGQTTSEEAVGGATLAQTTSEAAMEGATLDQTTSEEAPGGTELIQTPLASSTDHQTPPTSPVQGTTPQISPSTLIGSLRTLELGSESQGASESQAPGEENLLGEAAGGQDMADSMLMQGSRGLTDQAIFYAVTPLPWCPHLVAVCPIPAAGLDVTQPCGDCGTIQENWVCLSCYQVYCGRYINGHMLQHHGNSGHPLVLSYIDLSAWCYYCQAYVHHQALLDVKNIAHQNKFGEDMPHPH
Procedure: All of the HDAC enzymes were purchased from BPS Bioscience. In vitro HDAC inhibition assays were conducted as previously described. In brief, 20 μL of recombinant HDAC enzyme solution (HDAC1-9, 11) was mixed with various concentrations of the tested compound (20 μL). The mixture was incubated at 37 °C for 1 h, and then, 10 μL of fluorogenic substrate (Boc-Lys (acetyl)-AMC for HDAC1, 2, 3 and 6; Boc-Lys (trifluoroacetyl)AMC for HDAC4, 5, 7, 8, 9 and 11) was added to achieve a final concentration of 50 μM. After incubation at 37 °C for 2 h, the catalysis was stopped by the addition of 10 μL of developer containing 30 mg/mL trypsin and 6 μM trichostatin A (TSA). Then, 30 min later, the fluorescence intensity was measured using a microplate reader at excitation and emission wavelengths of 360 and 460 nm, respectively. The inhibition ratios were calculated from the fluorescence intensity readings of tested wells relative to those of control wells, and the IC50 curves and values were determined by GraphPad Prism 6.0, using the “log(inhibitor) vs. normalized response-variable slope” function.

THP-1 cells = test: Cell viability assay (resazurin), THP-1; format: cell-based; conditions: Homo sapiens, THP-1, 72 h; read-out: IC50 anti-proliferative activity THP-1
Procedure: (§1) The AML cell lines MV4-11, THP-1, KASUMI-1 and HL-60 were purchased from Procell Life Science & Technology Co., Ltd. (Wuhan, China). THP-1 and KASUMI-1 were cultured in RPMI-1640 complete medium containing 10% fetal bovine serum and 1% penicillin and streptomycin. MV4-11 was cultured in IMDM complete medium containing 10% fetal bovine serum and 1% penicillin and streptomycin. HL-60 was cultured in IMDM complete medium containing 20% fetal bovine serum and 1% penicillin and streptomycin. All cell lines were cultured in an incubator with humidity set at 95%, temperature at 37 °C and 5% CO2.
(§2) MV4-11, THP-1, KASUMI-1 and HL-60 cells were plated in 96-well transparent plates (10,000 to 15,000 cells/100 μL) and after incubation overnight, cells were treated with gradient-diluted inhibitors with several concentrations. After the cells were incubated with inhibitors for 72 h, 1 mg/mL of Resazurin (Sigma-Aldrich, Saint Louis, MO, USA) was added (working concentration was 0.1 mg/mL). After incubation at 37 °C for about 3 h, the fluorescence intensity of […] was measured at 560 nm/590 nm (excitation/emission) with a Spectra Max i3 Microplate Reader, and the cell viability was determined. The IC50 curve was drawn using GraphPad Prism 9.5 software.

Kasumi-1 cells = test: Cell viability assay (resazurin), Kasumi-1; format: cell-based; conditions: Homo sapiens, Kasumi 1, 72 h; read-out: IC50 anti-proliferative activity Kasumi-1
Procedure: as §1, §2

[1] = In vitro stability in artificial intestinal juice; format: in vitro ADME; conditions: 37 °C, within 24 h, degradation beginning after about 8 h
Procedure: (§3) Equal samples were collected, and 600 μL acetonitrile was added to quench enzyme reactions. The reaction mixture was swirled for 30 s and then centrifuged at 15,000 rpm at 4 °C for 15 min. The supernatant of each sample was analyzed directly by HPLC (1260 Infinity II, Agilent Technologies, Waldbronn, Germany).

[2] = In vitro stability in artificial gastric juice; format: in vitro ADME; conditions: 37 °C, within 24 h
Procedure: as §3

T1 sequence (Q92769 whole entry): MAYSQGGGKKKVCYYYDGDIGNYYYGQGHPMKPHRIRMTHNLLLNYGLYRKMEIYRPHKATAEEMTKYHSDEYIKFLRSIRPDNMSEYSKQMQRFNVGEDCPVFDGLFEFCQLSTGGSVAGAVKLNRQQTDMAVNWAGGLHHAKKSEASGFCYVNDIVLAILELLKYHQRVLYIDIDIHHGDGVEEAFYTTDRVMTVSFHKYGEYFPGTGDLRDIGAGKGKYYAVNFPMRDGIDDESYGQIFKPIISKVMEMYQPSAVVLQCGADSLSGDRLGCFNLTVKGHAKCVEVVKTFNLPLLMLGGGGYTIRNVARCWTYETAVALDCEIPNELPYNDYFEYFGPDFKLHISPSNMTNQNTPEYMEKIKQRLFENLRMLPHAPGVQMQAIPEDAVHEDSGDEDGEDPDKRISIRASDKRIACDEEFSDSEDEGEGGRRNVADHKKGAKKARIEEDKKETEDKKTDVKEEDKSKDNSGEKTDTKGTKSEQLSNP

For `CCCNNC(=O)C=Cc1ccc(CNCCc2ccccc2)cc1` [Compound 25c, 3-(4-((Phenethylamino)methyl)phenyl)-N′-propylacrylohydrazide], the IC50 (HDAC2) was 135 ± 13.3 nM, the IC50 (HDAC6) was over 10000 nM and the IC50 (THP-1 cells) was 392 ± 60.5 nM. For the same molecule, the IC50 (Kasumi-1 cells) was 338 ± 125 nM, the “degradation in artificial intestinal juice” value [1] was 12.52% and the “stability in artificial gastric juice” value [2] was “relatively stable”.
